{
  "source": "patent US20240059691A1",
  "about": "(KALVISTA PHARMACEUTICALS LIMITED, priority 2020, published 2024)",
  "assay_type_in_all_cases": "biochemical",
  "key": {"Human Factor XIIa": {"target": "Human Factor XIIa (Homo sapiens (Human), UniProt P00748)", "sequence (P00748 373-615)": "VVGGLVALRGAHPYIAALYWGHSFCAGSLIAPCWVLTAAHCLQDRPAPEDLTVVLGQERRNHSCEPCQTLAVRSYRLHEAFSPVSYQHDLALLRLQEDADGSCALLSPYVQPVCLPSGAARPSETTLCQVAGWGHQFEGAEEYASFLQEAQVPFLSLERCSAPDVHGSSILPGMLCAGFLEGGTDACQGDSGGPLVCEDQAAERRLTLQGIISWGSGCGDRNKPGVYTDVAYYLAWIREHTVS", "test": "Determination of FXIIa inhibition (fluorogenic substrate H-DPro-Phe-Arg-AFC, IC50 assay)", "settings": "substrate H-DPro-Phe-Arg-AFC at Km, 25° C.; class scale A-G", "procedure,_shortened": "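Human FXIIa incubated at 25° C with fluorogenic substrate H-DPro-Phe-Arg-AFC at its Km concentration and varying compound concentrations. Fluorescence release monitored over 5 min at 25° C; linear rate expressed as % of uninhibited activity to derive IC50.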"}, "KLK1": {"target": "KLK1 (Homo sapiens (Human), UniProt P06870)", "sequence (P06870 25-262)": "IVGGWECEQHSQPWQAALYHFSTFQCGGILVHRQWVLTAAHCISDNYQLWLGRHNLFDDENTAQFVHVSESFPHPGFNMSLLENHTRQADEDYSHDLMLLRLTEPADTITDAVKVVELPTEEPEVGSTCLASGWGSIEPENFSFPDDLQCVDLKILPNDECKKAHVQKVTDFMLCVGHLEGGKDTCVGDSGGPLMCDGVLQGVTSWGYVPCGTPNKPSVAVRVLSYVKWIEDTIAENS", "test": "Determination of related protease inhibition: KLK1 (fluorogenic substrate at Km)", "settings": "25° C.", "description": "Determination of Related Protease Inhibition\nIn vitro inhibition of related proteases was determined using an ([…] assay based on standard literature methods (see e.g. Shori et al., Biochem. Pharmacol., 1992, 43, 1209; Bouckaert et al., European Journal of Medicinal Chemistry 110 (2016) 181). Human serine protease enzymes Plasma Kallikrein, KLK1, FXa, Plasmin, Thrombin and Trypsin were assayed for enzymatic activity using an appropriate fluorogenic substrate at Km concentration, FXIa at fixed substrate concentration of 100 μM, and various concentrations of the test compound. Protease activity was measured by monitoring the accumulation of liberated fluorescence from the substrate over […]. The linear rate of fluorescence increase per minute was expressed as percentage (%) activity. IC50 values were calculated as the concentration of inhibitor giving 50% inhibition of the uninhibited enzyme activity (100%)."}, "Plasma Kallikrein": {"target": "Plasma Kallikrein (Homo sapiens (Human), UniProt P03952)", "sequence (P03952 391-638)": "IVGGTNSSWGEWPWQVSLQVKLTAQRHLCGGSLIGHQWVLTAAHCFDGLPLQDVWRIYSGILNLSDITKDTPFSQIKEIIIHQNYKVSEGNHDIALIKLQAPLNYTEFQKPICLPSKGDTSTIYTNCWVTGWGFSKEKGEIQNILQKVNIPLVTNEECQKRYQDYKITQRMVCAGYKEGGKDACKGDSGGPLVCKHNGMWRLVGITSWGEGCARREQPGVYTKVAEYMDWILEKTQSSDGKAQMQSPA", "sequence (P03952 20-390 partner)": "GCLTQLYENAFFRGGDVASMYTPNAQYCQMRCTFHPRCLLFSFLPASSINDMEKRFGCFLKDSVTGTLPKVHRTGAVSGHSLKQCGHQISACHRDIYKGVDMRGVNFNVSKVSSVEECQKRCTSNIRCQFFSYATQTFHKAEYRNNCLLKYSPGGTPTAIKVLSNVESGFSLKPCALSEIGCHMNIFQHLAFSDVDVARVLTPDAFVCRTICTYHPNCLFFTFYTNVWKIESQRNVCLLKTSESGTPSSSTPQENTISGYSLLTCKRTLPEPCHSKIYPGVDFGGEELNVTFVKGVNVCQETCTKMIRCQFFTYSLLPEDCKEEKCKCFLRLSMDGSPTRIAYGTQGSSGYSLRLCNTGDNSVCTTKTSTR", "test": "Determination of related protease inhibition: Plasma Kallikrein (fluorogenic substrate at Km)", "settings": "25° C., read-out: IC50 (human PKal)", "procedure,_shortened": "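The enzyme from human source is assayed in the presence of various test compound concentrations, with substrate held at its Km. Accumulating fluorescence is tracked for 5 min at 25 °C, and the concentration halving uninhibited activity is reported as IC50.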"}},
  "note": "pIC50: −log10 of the molar value.",
  "data": [
    {"compound": "Cc1cc(N2CCn3c(nnc3C(F)(F)F)C2C)ncc1CNc1cccc2c(N)nccc12", "note": "(racemic) [Example 1303, N5-((4-Methyl-6-(8-methyl-3-(trifluoromethyl)-5,6-dihydro-[1,2,4]triazolo[4,3-a]pyrazin-7(8H)-yl)pyridin-3-yl)methyl)isoquinoline-1,5-diamine]", "values": [
      {"measurement": "pIC50", "setting": "Human Factor XIIa", "result": "7.00 to 8.00"},
      {"measurement": "pIC50", "setting": "KLK1", "result": "< 5.40"}
    ]},
    {"compound": "Cc1cc(N2CCn3c(nnc3C(F)(F)F)C2C)ncc1CNc1cccc2c(N)nccc12", "note": "(single isomer, unassigned) [Example 1304, (R*)-N5-((4-methyl-6-(8-methyl-3-(trifluoromethyl)-5,6-dihydro-[1,2,4]triazolo[4,3-a]pyrazin-7(8H)-yl)pyridin-3-yl)methyl)isoquinoline-1,5-diamine]", "values": [
      {"measurement": "pIC50", "setting": "Human Factor XIIa", "result": "5.00 to 5.52"},
      {"measurement": "pIC50", "setting": "KLK1", "result": "5.00 to 5.52"}
    ]},
    {"compound": "Nc1nccc2c(NCc3cnc(N4CCn5c(nnc5C(F)(F)F)C4)c(C(F)(F)F)c3)cccc12", "note": "[Example 1306, N5-((5-(trifluoromethyl)-6-(3-(trifluoromethyl)-5,6-dihydro-[1,2,4]triazolo[4,3-a]pyrazin-7(8H)-yl)pyridin-3-yl)methyl)isoquinoline-1,5-diamine]", "values": [
      {"measurement": "pIC50", "setting": "KLK1", "result": "5.52 to 6.00"}
    ]},
    {"compound": "Nc1nccc2c(NCc3cnc(N4CCn5c(nnc5C(F)(F)F)C4)cc3C3CC3)cccc12", "note": "[Example 1307, N5-((4-cyclopropyl-6-(3-(trifluoromethyl)-5,6-dihydro-[1,2,4]triazolo[4,3-a]pyrazin-7(8H)-yl)pyridin-3-yl)methyl)isoquinoline-1,5-diamine]", "values": [
      {"measurement": "pIC50", "setting": "Human Factor XIIa", "result": "6.00 to 6.52"},
      {"measurement": "pIC50", "setting": "KLK1", "result": "5.00 to 5.52"}
    ]},
    {"compound": "CC(C)c1cc(N2CCn3c(nnc3C(F)(F)F)C2)ncc1CNc1cccc2c(N)nccc12", "note": "[Example 1308, N5-((4-isopropyl-6-(3-(trifluoromethyl)-5,6-dihydro-[1,2,4]triazolo[4,3-a]pyrazin-7(8H)-yl)pyridin-3-yl)methyl)isoquinoline-1,5-diamine]", "values": [
      {"measurement": "pIC50", "setting": "Human Factor XIIa", "result": "5.52 to 6.00"},
      {"measurement": "pIC50", "setting": "KLK1", "result": "5.00 to 5.52"}
    ]},
    {"compound": "CCc1cc(N2CCn3c(nnc3C(F)(F)F)C2)ncc1CNc1cccc2c(N)nccc12", "note": "[Example 1309, N5-((4-ethyl-6-(3-(trifluoromethyl)-5,6-dihydro-[1,2,4]triazolo[4,3-a]pyrazin-7(8H)-yl)pyridin-3-yl)methyl)isoquinoline-1,5-diamine]", "values": [
      {"measurement": "pIC50", "setting": "Human Factor XIIa", "result": "7.00 to 8.00"},
      {"measurement": "pIC50", "setting": "KLK1", "result": "< 5.40"}
    ]},
    {"compound": "Cc1nnc2n1CCN(c1ccc(CNc3cccc4c(N)nccc34)cn1)CC2", "note": "[Example 1310, N5-((6-(3-methyl-5,6,8,9-tetrahydro-7H-[1,2,4]triazolo[4,3-d][1,4]diazepin-7-yl)pyridin-3-yl)methyl)isoquinoline-1,5-diamine]", "values": [
      {"measurement": "pIC50", "setting": "Human Factor XIIa", "result": "5.52 to 6.00"},
      {"measurement": "pIC50", "setting": "KLK1", "result": "5.52 to 6.00"}
    ]},
    {"compound": "CC1Cn2c(nnc2C(F)(F)F)CN1c1ccc(CNc2cccc3c(N)nccc23)cn1", "note": "(stereo not shown) [Example 1311, N5-((6-(6-Methyl-3-(trifluoromethyl)-5,6-dihydro-[1,2,4]triazolo[4,3-a]pyrazin-7(8H)-yl)pyridin-3-yl)methyl)isoquinoline-1,5-diamine]", "values": [
      {"measurement": "pIC50", "setting": "Human Factor XIIa", "result": "7.00 to 8.00"},
      {"measurement": "pIC50", "setting": "KLK1", "result": "5.00 to 5.52"}
    ]},
    {"compound": "Cc1cc(N2CCn3c(nnc3C(F)(F)F)C2)ncc1CNc1ccnc2[nH]c(Cl)cc12", "note": "[Example 1313, 2-Chloro-N-((4-methyl-6-(3-(trifluoromethyl)-5,6-dihydro-[1,2,4]triazolo[4,3-a]pyrazin-7(8H)-yl)pyridin-3-yl)methyl)-1H-pyrrolo[2,3-b]pyridin-4-amine]", "values": [
      {"measurement": "pIC50", "setting": "Human Factor XIIa", "result": "6.52 to 7.00"},
      {"measurement": "pIC50", "setting": "KLK1", "result": "< 5.40"}
    ]},
    {"compound": "CC(C)N1C[C@H]2C[C@@H]1CN2Cc1cc(CNc2cccc3c(N)nccc23)ccn1", "note": "[Example 4295, 5-N-[(2-{[(1R,4R)-5-isopropyl-2,5-diazabicyclo[2.2.1]heptan-2-yl]methyl}pyridin-4-yl)methyl]isoquinoline-1,5-diamine]", "values": [
      {"measurement": "pIC50", "setting": "Human Factor XIIa", "result": "4.40 to 5.00"},
      {"measurement": "pIC50", "setting": "KLK1", "result": "4.40 to 5.00"}
    ]},
    {"compound": "CN1CCC(COc2cc(CNc3ccc4cnccc4c3F)ccn2)CC1", "note": "[Example 4466, 5-fluoro-N-((2-((1-methylpiperidin-4-yl)methoxy)pyridin-4-yl)methyl)isoquinolin-6-amine]", "values": [
      {"measurement": "pIC50", "setting": "Human Factor XIIa", "result": "5.00 to 5.52"},
      {"measurement": "pIC50", "setting": "Plasma Kallikrein", "result": "< 4.00"}
    ]},
    {"compound": "Cn1c(COc2cc(CNc3cccc4c(N)nccc34)ccn2)nnc1C1CC1", "note": "[Example 4468, N5-((2-((5-cyclopropyl-4-methyl-4H-1,2,4-triazol-3-yl)methoxy)pyridin-4-yl)methyl)isoquinoline-1,5-diamine]", "values": [
      {"measurement": "pIC50", "setting": "Human Factor XIIa", "result": "5.52 to 6.00"},
      {"measurement": "pIC50", "setting": "Plasma Kallikrein", "result": "< 4.40"}
    ]},
    {"compound": "CN1CCC(COc2cc(CNc3ccc(F)c4c(N)nccc34)ccn2)CC1", "note": "[Example 4469, 8-fluoro-N5-((2-((1-methylpiperidin-4-yl)methoxy)pyridin-4-yl)methyl)isoquinoline-1,5-diamine]", "values": [
      {"measurement": "pIC50", "setting": "Human Factor XIIa", "result": "5.00 to 5.52"},
      {"measurement": "pIC50", "setting": "Plasma Kallikrein", "result": "< 4.40"}
    ]},
    {"compound": "COc1ccc(NCc2ccnc(OCC3CCN(C)CC3)c2)c2ccnc(N)c12", "note": "[Example 4470, 8-methoxy-N5-((2-((1-methylpiperidin-4-yl)methoxy)pyridin-4-yl)methyl)isoquinoline-1,5-diamine]", "values": [
      {"measurement": "pIC50", "setting": "Human Factor XIIa", "result": "4.40 to 5.00"},
      {"measurement": "pIC50", "setting": "Plasma Kallikrein", "result": "< 4.40"}
    ]},
    {"compound": "Nc1nccc2c(NCc3ccnc(N4CCn5ccnc5C4)c3)cccc12", "note": "[Example 5436, N5-((2-(5,6-dihydroimidazo[1,2-a]pyrazin-7(8H)-yl)pyridin-4-yl)methyl)isoquinoline-1,5-diamine]", "values": [
      {"measurement": "pIC50", "setting": "Human Factor XIIa", "result": "4.40 to 5.00"},
      {"measurement": "pIC50", "setting": "Plasma Kallikrein", "result": "< 4.40"}
    ]},
    {"compound": "Nc1ncc(Cl)c2cc(NCc3ccnc(N4CCn5ccnc5C4)c3)ccc12", "note": "[Example 5437, 4-chloro-N6-((2-(5,6-dihydroimidazo[1,2-a]pyrazin-7(8H)-yl)pyridin-4-yl)methyl)isoquinoline-1,6-diamine]", "values": [
      {"measurement": "pIC50", "setting": "Human Factor XIIa", "result": "4.40 to 5.00"},
      {"measurement": "pIC50", "setting": "Plasma Kallikrein", "result": "< 4.40"}
    ]},
    {"compound": "CC(C)N1CCC(CN(CCCO)C(=O)c2cccc(CNc3cccc4c(N)nccc34)c2)CC1", "note": "[Example 5441, 3-(((1-aminoisoquinolin-5-yl)amino)methyl)-N-(3-hydroxypropyl)-N-((1-isopropylpiperidin-4-yl)methyl)benzamide]", "values": [
      {"measurement": "pIC50", "setting": "Human Factor XIIa", "result": "5.00 to 5.52"},
      {"measurement": "pIC50", "setting": "Plasma Kallikrein", "result": "< 4.40"}
    ]},
    {"compound": "Nc1ncc(Cl)c2cc(NCc3cccc(CC(=O)N4CCn5ccnc5C4)c3)ccc12", "note": "[Example 5442, 2-(3-(((1-amino-4-chloroisoquinolin-6-yl)amino)methyl)phenyl)-1-(5,6-dihydroimidazo[1,2-a]pyrazin-7(8H)-yl)ethan-1-one]", "values": [
      {"measurement": "pIC50", "setting": "Human Factor XIIa", "result": "4.40 to 5.00"},
      {"measurement": "pIC50", "setting": "Plasma Kallikrein", "result": "< 4.40"}
    ]},
    {"compound": "Nc1nccc2c(NCc3cnc(N4CCn5c(nnc5C(F)(F)F)C4)cn3)cccc12", "note": "[Example 9002, N5-((5-(3-(trifluoromethyl)-5,6-dihydro-[1,2,4]triazolo[4,3-a]pyrazin-7(8H)-yl)pyrazin-2-yl)methyl)isoquinoline-1,5-diamine]", "values": [
      {"measurement": "pIC50", "setting": "Human Factor XIIa", "result": "6.00 to 6.52"},
      {"measurement": "pIC50", "setting": "KLK1", "result": "5.00 to 5.52"}
    ]},
    {"compound": "Nc1nccc2c(NCc3cnc(N4CCn5c(nnc5C(F)(F)F)C4)nc3)cccc12", "note": "[Example 9003, N5-((2-(3-(trifluoromethyl)-5,6-dihydro-[1,2,4]triazolo[4,3-a]pyrazin-7(8H)-yl)pyrimidin-5-yl)methyl)isoquinoline-1,5-diamine]", "values": [
      {"measurement": "pIC50", "setting": "Human Factor XIIa", "result": "5.52 to 6.00"},
      {"measurement": "pIC50", "setting": "KLK1", "result": "5.00 to 5.52"}
    ]},
    {"compound": "Nc1nccc2c(NCc3ccc(N4CCn5c(nnc5C(F)(F)F)C4)nn3)cccc12", "note": "[Example 9004, N5-((6-(3-(Trifluoromethyl)-5,6-dihydro-[1,2,4]triazolo[4,3-a]pyrazin-7(8H)-yl)pyridazin-3-yl)methyl)isoquinoline-1,5-diamine]", "values": [
      {"measurement": "pIC50", "setting": "Human Factor XIIa", "result": "6.00 to 6.52"},
      {"measurement": "pIC50", "setting": "KLK1", "result": "5.00 to 5.52"}
    ]},
    {"compound": "Nc1nccc2c(N3CCCC3c3ccc(N4CCn5c(nnc5C(F)F)C4)nc3)cccc12", "note": "(stereo not shown) [Example 10001, 5-(2-(6-(3-(difluoromethyl)-5,6-dihydro-[1,2,4]triazolo[4,3-a]pyrazin-7(8H)-yl)pyridin-3-yl)pyrrolidin-1-yl)isoquinolin-1-amine]", "values": [
      {"measurement": "pIC50", "setting": "Human Factor XIIa", "result": "5.52 to 6.00"},
      {"measurement": "pIC50", "setting": "Plasma Kallikrein", "result": "< 4.40"}
    ]}
  ]
}
